Results: the supplement of paper PMC12463676, “Small-molecule dissolution of stress granules by redox modulation benefits ALS models” (Nature Chemical Biology, 2025)

Columns and labels:
[1] = compound: NC(=O)CCCCC1CCSS1 [lipoamide]; experiment: thermal stability z-score vs DMSO; higher = more thermally stabilized by treatment; conditions: HeLa, lipoamide concentration 100 µM
Description: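 Cellular thermal proteome profiling in HeLa cells. Cells were treated with 100 µM lipoamide for 1 h, with or without 1 mM arsenate for a further 1 h, then heated to ten temperatures (37-66.3 °C), and soluble protein was quantified by TMT mass spectrometry relative to 0.1% DMSO controls. The thermal stability score (sum of log2 fold changes minus the abundance score) was transformed to a z-score; mean of n = 3 experiments.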

[2] = compound: O=[As]([O-])(O)O.[K+] [potassium arsenate]; experiment: as above; conditions: HeLa; arsenate concentration 1 mM
Description: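 Cellular thermal proteome profiling in HeLa cells treated with 1 mM arsenate for 1 h (DMSO pretreatment), heated to ten temperatures (37-66.3 °C). Soluble protein was quantified by TMT mass spectrometry relative to DMSO controls; the thermal stability score was transformed to a z-score; mean of n = 3 experiments.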

[3] = arsenate co-treatment: 1 mM arsenate 1 h
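Also: each temperature applied for 3 min, abundance score taken as mean log2 fold change at the two lowest temperatures, z-score obtained by mean subtraction and division by SD.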

Sequence of UniProt Q12907 (Q12907 whole entry): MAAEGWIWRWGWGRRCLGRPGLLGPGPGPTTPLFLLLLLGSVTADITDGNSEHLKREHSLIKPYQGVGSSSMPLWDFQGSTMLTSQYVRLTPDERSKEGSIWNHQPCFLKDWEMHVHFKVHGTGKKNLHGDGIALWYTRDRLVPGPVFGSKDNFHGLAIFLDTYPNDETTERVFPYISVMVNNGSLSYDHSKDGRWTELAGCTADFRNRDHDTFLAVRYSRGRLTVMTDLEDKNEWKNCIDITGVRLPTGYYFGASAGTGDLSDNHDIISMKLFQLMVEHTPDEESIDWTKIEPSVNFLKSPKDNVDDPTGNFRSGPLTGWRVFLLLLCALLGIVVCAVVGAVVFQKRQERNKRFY
Sequence of UniProt P35998 (P35998 whole entry): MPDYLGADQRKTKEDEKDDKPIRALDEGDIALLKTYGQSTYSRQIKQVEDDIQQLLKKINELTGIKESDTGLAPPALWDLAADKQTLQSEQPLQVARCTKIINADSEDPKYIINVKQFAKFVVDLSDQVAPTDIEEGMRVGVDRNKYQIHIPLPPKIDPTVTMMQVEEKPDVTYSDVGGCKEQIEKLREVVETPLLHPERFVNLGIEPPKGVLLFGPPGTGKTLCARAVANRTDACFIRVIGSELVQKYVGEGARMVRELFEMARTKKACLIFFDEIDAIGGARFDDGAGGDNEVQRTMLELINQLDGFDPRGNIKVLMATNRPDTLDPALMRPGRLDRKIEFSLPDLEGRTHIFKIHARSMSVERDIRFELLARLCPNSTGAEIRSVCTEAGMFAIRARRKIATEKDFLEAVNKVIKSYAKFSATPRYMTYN
Sequence of UniProt Q2VPK5 (Q2VPK5 whole entry): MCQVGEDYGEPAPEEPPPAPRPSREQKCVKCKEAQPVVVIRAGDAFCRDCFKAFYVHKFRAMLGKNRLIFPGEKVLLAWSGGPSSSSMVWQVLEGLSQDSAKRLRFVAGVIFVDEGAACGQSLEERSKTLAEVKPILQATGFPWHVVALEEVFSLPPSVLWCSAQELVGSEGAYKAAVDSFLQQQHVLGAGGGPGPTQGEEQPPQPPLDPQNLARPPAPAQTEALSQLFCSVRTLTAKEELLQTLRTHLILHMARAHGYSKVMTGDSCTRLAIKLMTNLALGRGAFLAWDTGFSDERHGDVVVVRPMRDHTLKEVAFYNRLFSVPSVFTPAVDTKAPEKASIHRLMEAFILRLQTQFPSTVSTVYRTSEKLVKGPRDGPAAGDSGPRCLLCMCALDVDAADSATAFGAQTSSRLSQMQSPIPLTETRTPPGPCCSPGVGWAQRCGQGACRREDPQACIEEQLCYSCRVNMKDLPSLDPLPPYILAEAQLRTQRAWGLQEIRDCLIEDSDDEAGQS
Sequence of UniProt P18850 (P18850 whole entry): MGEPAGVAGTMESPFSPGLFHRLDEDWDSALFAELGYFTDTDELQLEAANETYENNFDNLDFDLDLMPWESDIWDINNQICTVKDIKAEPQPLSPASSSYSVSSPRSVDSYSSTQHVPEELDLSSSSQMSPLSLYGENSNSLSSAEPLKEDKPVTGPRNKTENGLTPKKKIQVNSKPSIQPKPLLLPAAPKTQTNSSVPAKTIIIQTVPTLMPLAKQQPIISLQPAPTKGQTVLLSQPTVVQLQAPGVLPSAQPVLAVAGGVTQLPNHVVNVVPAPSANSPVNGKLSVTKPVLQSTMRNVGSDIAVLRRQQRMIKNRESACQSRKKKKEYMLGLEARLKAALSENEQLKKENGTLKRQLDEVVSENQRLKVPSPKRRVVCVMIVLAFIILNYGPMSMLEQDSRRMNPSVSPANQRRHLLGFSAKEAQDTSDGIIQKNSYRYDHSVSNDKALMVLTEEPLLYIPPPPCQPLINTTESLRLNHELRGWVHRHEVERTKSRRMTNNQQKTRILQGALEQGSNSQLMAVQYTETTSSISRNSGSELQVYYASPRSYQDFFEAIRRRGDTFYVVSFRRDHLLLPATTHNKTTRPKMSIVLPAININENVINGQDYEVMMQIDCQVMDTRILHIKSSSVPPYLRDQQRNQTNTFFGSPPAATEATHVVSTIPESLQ
Sequence of UniProt Q6P1A2 (Q6P1A2 whole entry): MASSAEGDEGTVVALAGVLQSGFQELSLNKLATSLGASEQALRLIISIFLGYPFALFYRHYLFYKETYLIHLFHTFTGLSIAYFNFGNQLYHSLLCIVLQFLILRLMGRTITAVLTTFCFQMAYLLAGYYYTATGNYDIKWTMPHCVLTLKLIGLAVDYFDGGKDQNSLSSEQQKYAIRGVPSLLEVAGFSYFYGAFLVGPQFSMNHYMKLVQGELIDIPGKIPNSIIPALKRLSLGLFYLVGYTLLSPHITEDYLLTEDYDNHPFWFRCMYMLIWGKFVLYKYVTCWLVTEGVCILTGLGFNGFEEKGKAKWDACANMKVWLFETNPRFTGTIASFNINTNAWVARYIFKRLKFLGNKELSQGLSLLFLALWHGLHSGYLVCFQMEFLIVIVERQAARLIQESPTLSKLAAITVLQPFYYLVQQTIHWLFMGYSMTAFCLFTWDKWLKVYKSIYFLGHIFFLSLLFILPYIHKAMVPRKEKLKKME
Sequence of UniProt Q15121 (Q15121 whole entry): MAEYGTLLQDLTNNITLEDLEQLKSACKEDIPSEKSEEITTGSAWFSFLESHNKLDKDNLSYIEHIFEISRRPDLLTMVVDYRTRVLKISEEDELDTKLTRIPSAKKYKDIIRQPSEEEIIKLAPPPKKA
Sequence of UniProt Q9Y6R0 (Q9Y6R0 whole entry): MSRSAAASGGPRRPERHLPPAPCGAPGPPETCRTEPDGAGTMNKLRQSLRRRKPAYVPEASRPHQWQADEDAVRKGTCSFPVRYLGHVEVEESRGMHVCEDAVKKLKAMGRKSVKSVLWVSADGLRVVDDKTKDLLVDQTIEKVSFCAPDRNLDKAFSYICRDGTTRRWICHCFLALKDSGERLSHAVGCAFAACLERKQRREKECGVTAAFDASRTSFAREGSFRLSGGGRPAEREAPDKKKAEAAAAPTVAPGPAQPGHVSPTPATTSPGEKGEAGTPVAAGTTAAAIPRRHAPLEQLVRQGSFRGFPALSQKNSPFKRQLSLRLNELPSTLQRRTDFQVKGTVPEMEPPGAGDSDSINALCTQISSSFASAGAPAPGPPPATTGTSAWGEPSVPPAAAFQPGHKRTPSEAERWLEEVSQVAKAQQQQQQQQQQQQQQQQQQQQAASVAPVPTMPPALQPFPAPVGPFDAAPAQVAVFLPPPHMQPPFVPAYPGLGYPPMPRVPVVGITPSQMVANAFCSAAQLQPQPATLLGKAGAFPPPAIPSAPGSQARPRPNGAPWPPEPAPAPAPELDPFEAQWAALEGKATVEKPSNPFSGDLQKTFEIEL
Sequence of UniProt Q96CQ1 (Q96CQ1 whole entry): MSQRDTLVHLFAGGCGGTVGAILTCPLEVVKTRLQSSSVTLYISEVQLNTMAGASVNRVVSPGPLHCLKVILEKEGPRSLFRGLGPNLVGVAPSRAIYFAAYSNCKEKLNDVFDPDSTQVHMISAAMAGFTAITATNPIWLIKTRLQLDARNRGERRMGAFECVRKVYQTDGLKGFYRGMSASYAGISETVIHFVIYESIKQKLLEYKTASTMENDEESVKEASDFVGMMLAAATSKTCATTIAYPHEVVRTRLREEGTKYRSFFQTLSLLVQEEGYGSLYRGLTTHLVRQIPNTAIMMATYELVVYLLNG
Sequence of UniProt P07311 (P07311 whole entry): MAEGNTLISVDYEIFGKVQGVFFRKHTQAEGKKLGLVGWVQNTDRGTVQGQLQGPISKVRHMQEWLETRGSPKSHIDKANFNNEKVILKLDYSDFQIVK
Sequence of UniProt P11586 (P11586 whole entry): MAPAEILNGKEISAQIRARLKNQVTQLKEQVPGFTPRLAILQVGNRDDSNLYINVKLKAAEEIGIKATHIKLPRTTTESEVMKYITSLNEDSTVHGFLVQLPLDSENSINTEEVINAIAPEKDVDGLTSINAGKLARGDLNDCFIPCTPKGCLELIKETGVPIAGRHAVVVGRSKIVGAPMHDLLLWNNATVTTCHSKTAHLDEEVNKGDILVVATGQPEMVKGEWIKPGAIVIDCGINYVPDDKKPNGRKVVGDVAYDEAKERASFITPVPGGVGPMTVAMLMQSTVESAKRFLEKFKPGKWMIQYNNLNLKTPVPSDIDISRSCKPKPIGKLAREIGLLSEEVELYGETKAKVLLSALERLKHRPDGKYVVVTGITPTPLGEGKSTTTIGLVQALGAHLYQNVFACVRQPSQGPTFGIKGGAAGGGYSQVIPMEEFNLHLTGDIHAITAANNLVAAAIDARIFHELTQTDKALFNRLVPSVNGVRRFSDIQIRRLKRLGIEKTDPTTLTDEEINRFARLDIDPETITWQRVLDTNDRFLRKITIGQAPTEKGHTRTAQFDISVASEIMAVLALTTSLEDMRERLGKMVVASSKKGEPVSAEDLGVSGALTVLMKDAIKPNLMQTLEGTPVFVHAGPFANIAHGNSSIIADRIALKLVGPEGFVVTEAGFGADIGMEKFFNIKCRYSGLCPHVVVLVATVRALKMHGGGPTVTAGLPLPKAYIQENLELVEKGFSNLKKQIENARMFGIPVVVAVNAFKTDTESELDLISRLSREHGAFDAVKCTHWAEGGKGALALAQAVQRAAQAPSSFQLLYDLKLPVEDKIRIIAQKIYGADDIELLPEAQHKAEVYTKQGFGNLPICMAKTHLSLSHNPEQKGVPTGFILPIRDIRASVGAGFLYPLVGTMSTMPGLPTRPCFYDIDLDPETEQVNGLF
Sequence of UniProt P49427 (P49427 whole entry): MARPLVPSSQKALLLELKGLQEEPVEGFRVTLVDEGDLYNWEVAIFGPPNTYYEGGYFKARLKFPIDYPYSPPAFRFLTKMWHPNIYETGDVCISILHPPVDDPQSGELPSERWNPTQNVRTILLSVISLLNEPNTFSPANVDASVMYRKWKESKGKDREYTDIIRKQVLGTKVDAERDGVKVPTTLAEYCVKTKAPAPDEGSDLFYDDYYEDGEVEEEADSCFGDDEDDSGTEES
Sequence of UniProt P47224 (P47224 whole entry): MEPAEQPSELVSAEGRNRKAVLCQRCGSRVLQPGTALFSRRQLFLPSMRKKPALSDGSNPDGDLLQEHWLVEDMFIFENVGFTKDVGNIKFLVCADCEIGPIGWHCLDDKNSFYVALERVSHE

Target	thermal stability z-score [1, 3]	thermal stability z-score ([1]; arsenate co-treatment: none)	thermal stability z-score [2]
MTHFS (UniProt P49914)	-0.574	0.036	-0.488
ATF6 (UniProt P18850)	-0.0284	-0.0127	-0.177
ARHGDIB (UniProt P52566)	0.0327	-0.0579	0.0843
APPBP2 (UniProt Q92624)	-0.18	0.0712	-0.115
YTHDF2 (UniProt Q9Y5A9)	-0.0393	-0.108	0.0979
BAG4 (UniProt O95429)	0.25	0.752	0.76
HDDC2 (UniProt Q7Z4H3)	-0.204	-0.127	-0.419
NUMBL (UniProt Q9Y6R0)	0.0444	0.451	-1.68
SHC1 (UniProt P29353)	-0.383	0.739	0.126
RNF181 (UniProt Q9P0P0)	1.27	1.68	0.00117
XPO7 (UniProt Q9UIA9)	-0.0212	-0.0682	0.621
PEA15 (UniProt Q15121)	0.388	0.243	0.716
KIF2A (UniProt O00139)	-0.584	-0.0403	-0.0587
DOCK6 (UniProt Q96HP0)	-0.406	-0.347	-0.391
LPCAT3 (UniProt Q6P1A2)	0.125	0.0829	0.724
FAM73A (UniProt Q8NAN2)	-0.106	0.0979	0.164
FAM111B (UniProt Q6SJ93)	4.69	1.31	9.3
GMIP (UniProt Q9P107)	-0.232	-0.0407	-0.0798
ZRANB2 (UniProt O95218)	-0.755	-0.097	-0.286
MAGEA1 (UniProt P43355)	0.195	0.0019	1.03
ABHD10 (UniProt Q9NUJ1)	0.377	-0.241	-0.374
SLC7A6 (UniProt Q92536)	-0.86	-0.83	-0.695
PDLIM2 (UniProt Q96JY6)	-0.719	-0.463	-0.0521
SLC25A36 (UniProt Q96CQ1)	0.659	0.329	-0.241
ITSN1 (UniProt Q15811)	-0.734	-0.15	0.365
CDC34 (UniProt P49427)	-0.142	-0.0805	0.0868
NSF (UniProt P46459)	-0.331	-0.0542	0.232
CTU2 (UniProt Q2VPK5)	0.157	0.225	-0.165

Target	thermal stability z-score [1, 3]	thermal stability z-score ([1]; arsenate co-treatment: none)	thermal stability z-score [2]
EAPP (UniProt Q56P03)	0.767	0.459	-0.167
ADAR (UniProt P55265)	0.419	0.448	-1.48
PRKCA (UniProt P17252)	0.358	0.32	0.458
NUP54 (UniProt Q7Z3B4)	0.342	0.00636	0.309
ALDH3B1 (UniProt P43353)	-0.215	0.338	1.26
RAB3GAP2 (UniProt Q9H2M9)	-0.717	-0.266	0.64
UTRN (UniProt P46939)	0.452	-0.0132	-0.495
RABL3 (UniProt Q5HYI8)	-0.437	-0.307	-0.0747
SLC22A18 (UniProt Q96BI1)	0.00763	-0.34	-0.0251
LMAN2 (UniProt Q12907)	-1.93	-1.77	0.284
ANKRD50 (UniProt Q9ULJ7)	-0.124	0.078	0.0328
NFYC (UniProt Q13952)	0.024	0.385	-0.0961
PTP4A2 (UniProt Q12974)	1.78	1.15	0.861
DCAF12 (UniProt Q5T6F0)	0.118	0.0205	0.154
CYCS (UniProt P99999)	0.873	0.819	-0.152
XYLB (UniProt O75191)	-0.0179	-0.17	0.149
RILP (UniProt Q96NA2)	-0.0778	0.284	0.0653
GTF2A1 (UniProt P52655)	1.26	1.56	1.02
PSMC2 (UniProt P35998)	-0.293	-0.165	-0.134
FCHO2 (UniProt Q0JRZ9)	-0.472	-0.218	0.405
RIC8B (UniProt Q9NVN3)	-1.09	-0.233	-0.00195
PPOX (UniProt P50336)	0.085	0.352	0.154
ACYP1 (UniProt P07311)	-0.11	-0.304	-0.451
ARHGEF11 (UniProt O15085)	-0.0428	0.152	0.14
RABIF (UniProt P47224)	0.243	0.233	-0.572
MCM3 (UniProt P25205)	-0.878	0.412	2.44
MTHFD1 (UniProt P11586)	0.565	0.406	-0.927
